Measurements published in US9381238B2 (priority 2010, dated 2016).

Columns and labels:
[1] = tested on: H3N2 A/Moscow/10/99 virus; assay: Infectious titer (TCID50/ml) in supernatant of infected A549 cells; format: cell-based, H3N2 A/Moscow/10/99 virus in human A549 cells; conditions: A549, from 24 hpi onward, presence vs absence of Nutlin-3 (FIG. 2A)
[2] = tested on: H3N2 A/Moscow/10/99 virus; assay: Copies of viral genome M/ml in supernatant of infected MDCK cells by RT-qPCR; format: cell-based, H3N2 A/Moscow/10/99 virus in MDCK cells (dog); conditions: MOI 10^−3, 0.1, 1 and 10 μM
Description: (§1) FIGS. 2 to 7 show the observed amounts of copies of viral genome M/ml in the culture supernatant (M for the segment of viral genome encoding the M1 and M2 viral proteins), with various culture conditions and after various infection times.
(§2) For all the following examples, the experiments were carried out at a temperature of 37° C. The culture medium used is DMEM (Ref 41966, Gibco), supplemented with trypsin (1 ug/mL, Sigma) during the infections.
The MDCK line (ATCC No. CCL-34) is the most widely used line for the laboratory production of influenza virus. It is a cell line which is also registered and with which batches of vaccine have been produced by Novartis and Solvay.
At 24 hpi, up to 19 times more copies of genome M/ml are obtained in the presence of Nutlin-3 compared with the control.

[3] = tested on: H3N2 A/Moscow/10/99 virus; assay: Cytopathic effects induced by influenza virus on A549 cell layer (photon microscopy); format: cell-based, H3N2 A/Moscow/10/99 virus in human A549 cells; conditions: A549, 10 μM, MOI 2×10^−3, from 24 hpi onward, molecule added 14 h before infection and retained (FIG. 1)
Description: as §2
A549 cells (ATCC, American Type Culture Collection CCL185) are cells derived from a lung carcinoma. […] Several ex-vivo studies on lung tissues from infected patients have shown that epithelial cells of this type probably constitute the primary influenza virus infection site (Nicholls et al. Nat. Med. 2007 February; 13(2):147-9, van Riel et al. Science. 2006 Apr. 21; 312(5772):399). These cells are therefore considered to be relevant for studying influenza viruses and are, consequently, very widely used in the field of fundamental research on influenza viruses.
The observation and monitoring of the cytopathic effects induced by the virus over time generally allow a first evaluation of the degree of infection of the cell layer. The cytopathic effect induced by the virus is characterized in particular by fusion of the infected cells with one another, forming multinucleated cell structures (syncytia). By photon microscopy, observation of the amount and of the scale of these structures on the cell layer makes it possible to obtain an estimation of the degree of infection.

[4] = tested on: H3N2 A/Moscow/10/99 virus; assay: Copies of viral genome M/ml in supernatant of infected A549 cells by real-time RT-qPCR; format: cell-based, H3N2 A/Moscow/10/99 virus in human A549 cells; conditions: for times more copies of genome in supernatant than control without Nutlin-3: A549, 10 hpi (single viral cycle); for times more copies M/ml of supernatant than the control: MOI 10^−3, pretreatment
Description: as §1, §2
In order to gain a more precise idea, the quantification of the number of copies of viral genome M/ml of supernatant was then carried out, by extraction of the viral RNAs and quantification by real-time RT-qPCR (FIG. 2B). At 48 hpi, 6.66×10^6 copies M/ml were measured in the absence of Nutlin-3, compared with 2.44×10^8 copies M/ml in the presence of Nutlin-3, i.e. a gain of more than 36-fold in terms of viral production. The same calculation performed at 72 hpi indicates a gain of 88-fold in favor of the conditions where Nutlin-3 is used.
The A549 cells were infected with various amounts of virus (MOI 0.01, 0.1 and 1), in the presence or absence of Nutlin-3, and the amount of copies M/ml of supernatant was measured by RT-qPCR after a single viral cycle (10 hpi) or after several viral cycles (28 hpi). The cells were brought into contact with Nutlin-3, either 14 h before the infection (T=−14 h), or immediately at the time of infection (T=0 h) (FIG. 3). In any event, the Nutlin-3 is added in one go.
A similar experiment was carried out with an MOI of 10^−3, while modifying the time at which the pretreatment is carried out (14 h compared with 10 h before infection). At 48 hpi, Nutlin-3 makes it possible to obtain 1.5, 5.7 and 40 times more copies M/ml of supernatant than the control for respective concentrations of 0.1, 1 and 10 μM (FIG. 4).
This molecule was used at concentrations of 2 and 20 μM with an MOI of 10^−3.

Structure (SMILES)	gain in infectious titer (TCID50/ml) in the supernatant [1]	times more copies of genome M/ml compared with the control ([2]; 24 hpi, pretreatment 14 h before infection (FIG. 5))	effect on viral titer (copies of genome M/ml) in cell supernatants ([2]; pretreatment 14 h before infection, after several consecutive viral cycles (FIG. 5))	cytopathic effect compared with infected cells without Nutlin-3 [3]	times more copies of genome in supernatant than control without Nutlin-3 ([4]; treatment started at T=0, MOI 0.1 (FIG. 3)) [times]	times more copies of genome in supernatant than control without Nutlin-3 ([4]; treatment started at T=0, MOI 1 (FIG. 3)) [times]	gain in viral production (copies M/ml) vs absence of Nutlin-3 ([4]; A549, 48 hpi (FIG. 2B))	times more copies M/ml of supernatant than the control ([4]; A549, 48 hpi, 0.1 μM (FIG. 4)) [times]	times more copies M/ml of supernatant than the control ([4]; A549, 48 hpi, 1 μM (FIG. 4)) [times]	times more copies M/ml of supernatant than the control ([4]; A549, 48 hpi, 10 μM (FIG. 4)) [times]	copies of viral genome M/ml of supernatant ([4]; A549, 48 hpi, in the presence of Nutlin-3 (FIG. 2B))	gain in viral production (copies M/ml) vs absence of Nutlin-3 ([4]; A549, 72 hpi (FIG. 2B)) [fold]	times more copies of genome M in the supernatant compared with the control ([4]; A549, 48 hpi, MOI 10^−3, 2 μM (FIG. 6))	times more copies of genome M in the supernatant compared with the control ([4]; A549, 72 hpi, MOI 10^−3, 20 μM (FIG. 6))
COc1ccc(C2=NC(c3ccc(Cl)cc3)C(c3ccc(Cl)cc3)N2C(=O)N2CCNC(=O)C2)c(OC(C)C)c1 (racemic) [Nutlin-3, (±)-4-[4,5-bis(4-chlorophenyl)-2-(2-isopropoxy-4-methoxy-phenyl)-4,5-dihydroimidazole-1-carbonyl]piperazin-2-one]	gain of one log 10 difference	up to 19 times	greatly increases the viral titer	more marked cytopathic effect	11	50	more than 36 fold	1.5	5.7	40	2.44×10^8 copies M/ml	88	–	–
Cc1ccc2ccc(C(Nc3ccccc3)c3ccccc3)c(O)c2n1 (centres unmarked) [NSC66811, 2-methyl-7-[phenyl(phenylamino)methyl]-8-quinolinol]	–	–	–	–	–	–	–	–	–	–	–	–	approximately 6 times	approximately 5 times
